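1) Cells in 96-well plates. 2) Compound, 48 h, 5 concentrations. 3) Linear interpolation between surrounding doses. 4) Unreached endpoint = highest concentration. GI50: concentration for 50% inhibition of growth. TGI is the concentration that stops growth completely.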
Legend:
Assay in all cases: growth of human tumour cells (NCI), 48 h
HCT-116 colon = tested on: HCT-116 colon
NCI-H460 lung = tested on: NCI-H460 lung
OVCAR-8 ovarian = tested on: OVCAR-8 ovarian
SN12C renal = tested on: SN12C renal
MALME-3M melanoma = tested on: MALME-3M melanoma
MDA-MB-435 = tested on: MDA-MB-435
UACC-62 melanoma = tested on: UACC-62 melanoma
MDA-MB-231 breast = tested on: MDA-MB-231 breast
DU-145 prostate = tested on: DU-145 prostate
MOLT-4 leukemia = tested on: MOLT-4 leukemia

Compound | TGI (HCT-116 colon) [µM] | TGI (NCI-H460 lung) [µM] | TGI (OVCAR-8 ovarian) [µM] | TGI (SN12C renal) [µM] | TGI (MALME-3M melanoma) [µM] | TGI (MDA-MB-435) [µM] | TGI (UACC-62 melanoma) [µM] | TGI (MDA-MB-231 breast) [µM] | TGI (DU-145 prostate) [µM] | TGI (MOLT-4 leukemia) [µM] | GI50 (HCT-116 colon) [µM] | GI50 (NCI-H460 lung) [µM] | GI50 (OVCAR-8 ovarian) [µM] | GI50 (SN12C renal) [µM] | GI50 (MALME-3M melanoma) [µM] | GI50 (MDA-MB-435) [µM] | GI50 (UACC-62 melanoma) [µM] | GI50 (MOLT-4 leukemia) [µM] | GI50 (MDA-MB-231 breast) [µM] | GI50 (DU-145 prostate) [µM]
N#Cc1c(Cl)c2cc([N+](=O)[O-])ccc2n2c1nc1ccccc12 | > 100 | 38.5 | 10.6 | > 100 | 24.1 | 4.65 | 35.4 | 0.858 | 18.4 | – | – | – | – | – | – | – | – | – | – | –
CCOC(=O)C(O)(NC(=O)c1ccc(F)cc1)C(F)(F)F (stereo unspecified) | > 100 | – | > 100 | > 100 | > 100 | > 100 | > 100 | > 100 | > 100 | > 100 | – | – | – | – | – | – | – | – | – | –
O=S1(=O)N(CCNc2nccc(-c3c(-c4cccc(O)c4)nc4sccn34)n2)CCN1Cc1ccccc1 | 19.4 | 17.1 | > 50 | > 50 | > 50 | > 50 | 5.29 | 26.4 | 26.1 | 40.3 | 5.56 | 3.45 | 4.88 | 9.5 | 0.108 | 1.23 | 0.136 | 7.84 | 3.06 | 8.1
NCCCCC(N)C(=O)NCCNc1ccc(NCCNC(=O)C(N)CCCCN)c2c1C(=O)c1ccccc1C2=O (stereo unspecified) | > 100 | > 100 | > 69 | 99.1 | > 100 | > 100 | > 100 | > 100 | > 100 | > 100 | – | – | – | – | – | – | – | – | – | –
C=CC1(C)CCC2=C(CCC3C(C)(C(=O)OC)CCCC23C)C1=O (stereo unspecified) | 31.1 | 36.5 | > 100 | 33 | 32.8 | – | 33.7 | – | – | – | – | – | – | – | – | – | – | – | – | –
O=C(N/N=C\c1cccc(O)c1)c1ccncc1 | > 100 | > 100 | > 100 | > 100 | > 100 | > 100 | > 100 | > 100 | > 100 | > 100 | – | – | – | – | – | – | – | – | – | –
O=C1CCCCC2N(C(c3ccccc3)c3ccccc3)CC[C@@]12c1ccccc1 (mixture of isomers) | > 10 | > 10 | > 10 | > 10 | – | – | > 10 | – | – | > 10 | – | – | – | – | – | – | – | – | – | –
C=C(C)C(=O)OC1CCC2(C)C(CCC3C2CCC2(C)C(c4ccc(=O)oc4)CC4OC432)C1 (stereo unspecified) | 19 | 7.99 | 24 | 24.1 | 26.4 | – | 17.2 | – | – | 15.5 | – | – | – | – | – | – | – | – | – | –
O=C(O)Cc1cc(O)c(CC(=O)O)cc1O | > 100 | > 100 | > 100 | > 100 | > 100 | > 100 | > 100 | > 100 | > 100 | > 100 | – | – | – | – | – | – | – | – | – | –
CCN(CC)CC(=O)O[C@]1(CC)C(=O)OCc2c1cc1n(c2=O)Cc2cc3ccccc3nc2-1 | 0.352 | 0.129 | 3.65 | 1.8 | 2.61 | 0.862 | 0.0261 | 31.3 | 0.21 | 0.0749 | – | – | – | – | – | – | – | – | – | –
Cc1cc(O)c(C(C)(C)C)cc1Sc1cc(C(C)(C)C)c(O)cc1C | – | 7.33 | 15.4 | > 100 | 5.71 | 4.14 | 3.11 | 5.06 | 13.2 | 8.07 | – | 2.89 | 3.82 | 2.91 | 2.32 | 1.98 | 1.32 | 2.67 | 2.16 | 3.69
Cc1nc2ccccc2n1C(=O)c1c(F)c(F)c(F)c(F)c1F | 21.8 | 52 | 40.6 | 30.6 | 57.5 | 20 | 44.1 | 32 | 76.5 | 27.1 | – | – | – | – | – | – | – | – | – | –
Clc1ccccc1/C=C/c1cscn1 | > 100 | > 100 | – | > 100 | > 100 | – | > 100 | – | – | > 100 | – | – | – | – | – | – | – | – | – | –
CCOC(=O)CN=C1NNS(=O)(=O)c2ccccc21 | > 100 | > 100 | > 100 | > 100 | > 100 | > 100 | > 100 | > 100 | > 100 | > 100 | – | – | – | – | – | – | – | – | – | –
Cc1ccc2c(c1)C1(C)OC(C=CC1=O)O2 (stereo unspecified) | 0.652 | 6.03 | 0.803 | 0.862 | 1.32 | 0.317 | 3.6 | 0.745 | 8.45 | 0.862 | – | – | – | – | – | – | – | – | – | –
Cn1c(=O)c2[nH]c(CCCCC(=O)O)nc2n(C)c1=O | > 100 | > 100 | > 100 | > 100 | > 100 | > 100 | > 100 | > 100 | > 100 | > 100 | – | – | – | – | – | – | – | – | – | –
